± gives the expanded uncertainty stated by the source.

As a reminder, the refractive index is a measure of how strongly the sample bends light.

The data set can be described thus: refractive index (Na D-line) (dimensionless). The note with it: 293.15 K; 101.33 kPa; Liquid; Standard Abbe refractometry.
As to `CCC(C)(C)OC` [2-methoxy-2-methylbutane], the refractive index stood at 1.3886 ± 0.0009.
Regarding `COC(C)(C)C` [2-methoxy-2-methylpropane], the refractive index was found to be 1.3689 ± 0.0007.
For `CCC=C(C)C` [2-methyl-2-pentene], the refractive index was 1.4003 ± 0.0008.
Turning to `CC#N` [acetonitrile], the refractive index is 1.3439 ± 0.0007.
On to `CCO` [ethanol], for which the refractive index is recorded as 1.3618 ± 0.0007.
In the case of `CCOC(C)=O` [ethyl acetate], the refractive index is given as 1.3724 ± 0.0007.
For `CCCCCCC` [heptane], the refractive index is on record as 1.3878 ± 0.0007.
On to `CCCCCC` [hexane], for which the refractive index came out at 1.3752 ± 0.0007.
As for `CO` [methanol], the refractive index came out at 1.3287 ± 0.0007.

(Values after the NIST ThermoML archive (doi:10.1016/j.fluid.2012.11.008).)
